Data from patent publication US10918628B2, “Treatment of synucleinopathies” (Deutsches Zentrum für Neurodegenerative Erkrankungen e. V. …, priority 2016, dated 2021).
Several values for one entry are separate records, joined by “and”; a condition that tells them apart may be missing. Equal values may be shown once. Read-outs that look alike come from different tables or passages of the source.

Legend:
[1] = tested on: α-syn overexpressing LUHMES cells; experiment: LDH release into the culture medium as measure of α-syn-induced cell death; format: cell-based, human; conditions: for effect of specific PDE inhibitors on α-syn mediated toxicity (LDH release): FIG. 2B-I
α-syn = experiment: Western blot quantification of α-syn bands; format: cell-based, human
[2] = tested on: α-syn transduced LUHMES neurons; experiment: High-throughput screening of FDA-approved drugs for neuroprotective efficacy against α-syn (propidium iodide / Hoechst 33342 survival); format: cell-based, human; conditions: 3 μM and 10 μM, each in triplicates (six runs); six days after transduction
[3] = tested on: TH+ neurons in the substantia nigra; experiment: Stereological counting of TH+ cells in the substantia nigra after intranigral rAAV injection; format: in vivo, mice
Description: FIG. 5 Vinpocetine protects against α-syn-induced toxicity in vivo. (A) Experimental time flow. Grey bar: time point of stereotactical injection. (B) Experimental groups. Mice were injected stereotactically with either NaCl (control injection) or rAAV to overexpress luciferase (rAAV-Luc, control protein), or alpha-synuclein (rAAV-α-syn). Animals of each injection group were then randomized with a 1:1 allocation to be treated with once daily intraperitoneal injections of either solvent or vinpocetine for a 9-week period. (C) Representative images of the substantia nigra, immunostained for tyrosine hydroxylase (TH, grey) to identify dopaminergic neurons in solvent treated mice. Circle: area of cell loss upon α-syn overexpression. (D) Quantification of TH^+ cells on the control (Ctrl) side and the stereotactic injection side of solvent treated mice. On the injection side there was a significant loss of TH^+ cells (dark grey bar, right panel) after α-syn overexpression. (E) Images of the TH-immunostained substantia nigra of vinpocetine treated mice of the three injection groups. […] (F) Quantification of the number of TH^+ cells on the control (Ctrl) side and the stereotactic injection side of vinpocetine treated mice. […] Data are mean±s.e.m. Scale bars: 1 mm.
To investigate the neurotoxicity of α-syn in vivo, recombinant adeno-associated viral (rAAV) vectors were stereotactically injected into the substantia nigra of 11 weeks old mice to overexpress human wild type α-syn (rAAV-α-syn; FIG. 5A). The injection of rAAV vectors expressing luciferase (rAAV-luc) or injections with NaCl were used as controls for the toxicity of viral-mediated protein overexpression or the injection procedure itself. The treatment started one week after the intranigral injections. Therefore, the mice of each injection group (NaCl, rAAV-luc, and rAAV-α-syn) were randomized to be treated by daily intraperitoneal injections with 25 mg vinpocetine in solvent or the corresponding volume of solvent alone (FIG. 5B). All animals survived the injection procedure and treatment period. A subgroup of animals were not treated and sacrificed three weeks after injection to determine the transduction rate for rAAV-α-syn and rAAV-luc (each n=3).
To quantify the extent of neurodegeneration induced by rAAV mediated overexpression of α-syn, tyrosine-hydroxylase (TH) stainings of the substantia nigra and the striatum were performed. The number of TH^+ cells was determined by stereological counting. In the group of NaCl injected mice with solvent treatment, there was no significant difference in the number of TH^+ neurons between the injected (4108±54 cells) and the non-injected side (4168±92 cells, P=0.99, FIG. 5C, upper panel and FIG. 5D, blank columns).
To determine the efficacy of vinpocetine in vivo, the number of TH^+ cells in the substantia nigra was determined in mice treated with daily injections of 25 mg/kg vinpocetine in solvent or the corresponding amount of solvent alone.

microglial marker ibal = conditions: mouse, in vivo
[4] = tested on: α-syn overexpressing LUHMES cells; experiment: Number of vital DAPI-stained nuclei (cell counts); format: cell-based, human; conditions: 20 μM vinpocetine; α-syn with DMSO 57.0±3.4%
From the text: (§1) FIG. 3 The PDE1 inhibitor vinpocetine reduces cell death and 37 kDa α-syn specimen. (A) Cell counts of untransduced control cells (Ctrl, white bar), solvent treated α-syn transduced cells (black bar) and α-syn transduced cells with treated with different concentrations of vinpocetine (dark grey bars) confirmed the protective effect of vinpocetine. […] (C) Quantification of the CellEvent™ signal in untransduced control cells (Ctrl, left bar), α-syn transduced cells treated with solvent (black bar) and vinpocetine treated α-syn transduced cells (dark grey bar). (D) Representative Western blot of control cells (Ctrl), α-syn transduced cells without or with treatment vinpocetine in different concentrations. (E-H) Quantification of specific α-syn positive Western blot bands. […] The density of the 37 kDa band positively correlated with the LDH release (r^2=0.99, P<0.001, I) and negatively correlated with the number of vital cells (r^2=0.96, P<0.01, J). *P<0.05, **P<0.01, ***<0.001, n.s. not significant, one-way ANOVA with Tukey's HSD post-hoc test. Data are mean±s.e.m.
(§2) To validate the data from the LDH measurement, we determined the number of vital 4′,6-diamidino-2-phenylindole (DAPI)-stained nuclei in untransduced control cells and α-syn overexpressing cells treated without or with ascending concentrations of vinpocetine. […]

caspase 3 and 7 = experiment: CellEvent fluorescence signal for activated caspase 3 and 7; format: cell-based, human; conditions: 20 μM vinpocetine; untransduced 1.0±0.2, α-syn with DMSO 74.8±5.7
From the text: as §1, §2

[5] = vinpocetine treated mice, daily intraperitoneal 25 mg/kg

## Nc1nc(-c2nn(Cc3ccccc3F)c3ncccc23)ncc1C1CC1 [BAY41-2272]
[1]; 1 μM BAY41-2272
  relative LDH release compared to α-syn overexpressing control cells: 56.2±7.8%
α-syn; α-Syn-transduced neurons with forskolin or BAY41-2272, FIG. 4d,e
  change of 37 kDa α-Syn band (Western blot, C20 antibody): reduction of a 37 kDa α-Syn band

## Cc1ccc([N+](=O)[O-])cc1S(=O)(=O)N(C)C [BRL 50481]
[1]; different concentrations
  effect of specific PDE inhibitors on α-syn mediated toxicity (LDH release): did not have an effect

## COc1ccc(Cc2nn3c([C@@H](CCCc4ccccc4)[C@@H](C)O)nc(C)c3c(=O)[nH]2)cc1OC [Bay60-7550]
[1]; different concentrations
  effect of specific PDE inhibitors on α-syn mediated toxicity (LDH release): did not have an effect

## C[C@H](Cc1nc2c(cnn2-c2ccccc2Cl)c(=O)[nH]1)C(F)(F)F [Bay 73-6691]
[1]; different concentrations
  effect of specific PDE inhibitors on α-syn mediated toxicity (LDH release): did not have an effect

## Cc1[nH]c(=O)c(C#N)cc1-c1ccncc1 [Milrinone]
[1]; different concentrations
  effect of specific PDE inhibitors on α-syn mediated toxicity (LDH release): did not have an effect

## COc1ccc(C2CNC(=O)C2)cc1OC1CCCC1 (stereo not drawn) [Rolipram]
[1]; different concentrations
  effect of specific PDE inhibitors on α-syn mediated toxicity (LDH release): did not have an effect

## CCCc1nn(C)c2c(=O)[nH]c(-c3cc(S(=O)(=O)N4CCN(C)CC4)ccc3OCC)nc12 [Sildenafil]
[1]; different concentrations
  effect of specific PDE inhibitors on α-syn mediated toxicity (LDH release): did not have an effect

## OCCN(CCO)c1nc(N2CCCCC2)c2nc(N(CCO)CCO)nc(N3CCCCC3)c2n1 [dipyridamole]
[1]; Five μM dipyridamole
  LDH level compared to α-syn overexpressing LUHMES cells with DMSO treatment: 77.0±5.1%
[2]
  protective hit (Z-score above 2.5) in cell survival screening: protective in all six runs

## COC(=O)C1=C(C)NC(C)=C(C(=O)OC(C)C)C1c1cccc2nonc12 (stereo not drawn) [isradipine]
[1]; different concentrations, FIG. 4A,B
  effect of cation channel blockers on α-syn mediated toxicity (LDH release): did not affect

## NC1=N[C@H](O)[C@H]2[C@H]3O[C@]4(O)O[C@@H]([C@@H](O)[C@@]2(N1)[C@@H]4O)[C@]3(O)CO [tetrodotoxin]
[1]
  effect of cation channel blockers on α-syn mediated toxicity (LDH release): did not affect

## vinpocetine
[1]; different concentrations
  effect of specific PDE inhibitors on α-syn mediated toxicity (LDH release): significant protection in a dose dependent manner
[3]; NaCl and rAAV-luc injection groups
  difference in number of TH+ neurons between solvent and vinpocetine treatment: no difference
[3]; mice, daily intraperitoneal 25 mg/kg vinpocetine, 9-week period, solvent treated 2915±79
  number of TH+ cells in the substantia nigra on the rAAV-α-syn injection side: 3870±141 cells and 3870±14 cells
[3]; rAAV-α-syn injected mice, vinpocetine once daily intraperitoneal, 9 weeks, FIG. 5F
  protection against α-syn-induced cell death of TH+ neurons in vivo: completely prevented α-syn-induced cell death
[3]; [5]
  number of TH+ cells on the injection side, NaCl injected mice: 3984±160 cells
  number of TH+ cells on the injection side, rAAV-luc injected mice: 3860±138 cells
Microglial marker ibal
  ibal-immunoreactivity, vinpocetine versus solvent treatment: nor any differences between vinpocetine and solvent treatment
[4]
  cells survived (cell number compared to untransduced controls): 85.1±4.1%
Caspase 3 and 7
  relative CellEvent signal (activated caspase 3 and 7): 25.6±2.1
α-syn; 20 μM vinpocetine
  reduction of density of 37 kDa α-syn band compared to α-syn overexpressing cells treated with DMSO: 52.2±6.6%
α-syn; 20 μM vinpocetine, DMSO treated α-syn cells 3.4±0.1-fold
  α-syn monomer band compared to untransduced controls: 5.1±0.4 fold
α-syn; vinpocetine treatment, FIG. 3G,H
  change in other α-syn bands: no change
